For data set [1], the system named is gastrointestinal motility. The data set is described as follows: charcoal propulsion test, intestinal motility after single oral dose. As for the experimental part: A study on the effect on intestinal motility of L-carnitine acid fumarate vs. L-carnitine L-tartrate administered by the oral route to the rat at a single dose, using the charcoal propulsion test, is hereinbelow reported.
35-day old, Hsd Sprague Dawley (SD) male rats (Harlan), weighing 125-150 g were used in the study. The rats were supplied by Harlan Nossan S.r.l., 8, Via E. Fermi, 20050 Correzzana (MI)—Italy.
Eight male rats/group were treated orally with L-Carnitine acid Fumarate, at the doses of 430-855 and 1710 mg/10 ml/kg, and with L-Carnitine L-Tartrate at the doses of 365-730 and 1455 mg/10 ml/kg.
The doses of the two compounds were chosen as equimolar to 250-500 and 1000 mg/kg of L-Carnitine Inner Salt.
Two additional groups, each consisting of eight males, were set up and orally treated respectively with the vehicle (Control group—0.5% Carboxymethylcellulose (MC) in deionized water: 10 ml/kg) or with Atropine (30 mg/10 ml/kg) as reference standard.
The animals were subdivided at random (in number of 4/cage) into the different dosage groups according to the following scheme:
Forty-five minutes after the administration of all the above reported substances, each rat received orally 1.5 ml of a 10% charcoal suspension.
Exactly twenty minutes after dosing with charcoal suspension the rats were sacrificed; then the distance the charcoal meal had travelled throughout the intestine (from the pyloric sphincter towards the caecum) was measured and expressed as a percentage of the total gut length.

The conditions of data set [2]: oral intake, dose-related; cited from earlier work.
Where [3] appears, read: individual rats, oral 30 mg/10 ml/kg.

Data on two compounds can be found in patent US6441039B1, “Gastro-intestinal adverse effect-free composition comprising an L-carnitine replacement” (priority 1998, dated 2002).

Where “and” joins values, the source holds several entries; their conditions need not be identical. Equal values may be shown once. Where a name gives a salt, the structure may show the parent alone. Marks after values point to notes of the source that are not given here.

In the case of `CN1[C@@H]2CC[C@H]1C[C@@H](OC(=O)C(CO)c1ccccc1)C2` (stereo partly drawn) [Atropine], in data set [1] (setting [3]), the “Distance travelled as % of total intestine length (individual rat)” value is 48.74% and 39.68% and 37.50% and 46.56% and 44.07% and 44.96% and 42.06% and 41.60%; the “Distance travelled by charcoal (individual rat)” value was 58 cm (2×) and 50 cm and 45 cm and 61 cm and 52 cm (2×) and 53 cm. The “% change from vehicle” value in data set [1] (rat, oral 30 mg/10 ml/kg) is reported as −30.87%. In data set [1] (rat, oral 30 mg/kg), the “change in gastrointestinal motility vs control group” value was “statistically highly significant (p<0.001) decrease in gastrointestinal motility”. Further, the “Distance travelled as % of total intestine length (mean)” value in data set [1] (rat, oral single dose 30 mg/10 ml/kg, n=8, p<0.001 vs control) was 43.15 ▴ %.
Turning to `C[N+](C)(C)C[C@H](O)CC(=O)[O-]` [L-carnitine, L-carnitine inner salt], the “gastrointestinal adverse effect in users” value in data set [2] is “episodes of diarrhoea have been frequently reported”.
